In US10045951B2, “Flaxseed lignan complex and its use thereof” (priority 2007, dated 2018):
Where a SMILES comes first, the peptide text is derived from it. The star is where a group is joined. Cbz = O=C(OCc1ccccc1)*

Tests used:
[1] = test system: Nrf2; assay: Nuclear Nrf2 levels in PMVEC; assay type: cell-based, mouse; conditions: 10 μM
Excerpt: Nrf2 was detected with our own rabbit polyclonal Antibody (Clone MCS-1a).

[2] = test system: ROS generation in PMVEC; assay: ROS generation (H2DCF) by PMVEC in simulated I/R flow chamber; assay type: cell-based, mouse; conditions: 5 μM for 5 h prior to I/R
Method: Mouse pulmonary endothelial cells (PMVEC) were grown on coverslips and placed in a Warner chamber and perfused with culture medium for 24 h at a flow rate of 10 dyn/cm^2. Cells were incubated with the Lignan ED (5 μM) for 5 h prior to I/R loaded with H2DCF to monitor ROS immediately before the experiment. I/R in this chamber is simulated by abrupt cessation of perfusate flow and its reinstatement through the chamber 5 minutes later. The images are in pseudocolor with intensity shown on the side bar.

[3] = Lignan content in murine plasma (LC/MS/MS); assay type: in vivo, mice; conditions: oral, 10 % FS (flaxseed) in diet, FS-fed (10% FS) mouse groups, 4 months post-irradiation, read-out: circulating plasma level
Method: Circulating plasma levels of the flaxseed lignans ED and EL at time of sacrifice (4 months' post-XRT) were determined by liquid chromatography tandem mass spectrometry (LC/MS/MS) using commercially available standards in 95% purity (Chromadex, Inc., Santa Ana, Calif.) shown in FIG. 39. Plasma flaxseed lignan levels were evaluated in 3 randomly selected mice per group (irradiated mice; diet initiated at −3, 0, +2, +4, +6 weeks of radiation exposure).
Detection of flaxseed metabolites in the circulation using analytical methods was used to confirm that mice were feeding on the flaxseed-supplemented diet to reach physiologically relevant levels. Mice were maintained on control (0% FS) or treatment (10% FS) diets given ad libitum for either three weeks prior to XRT and for the entire duration of the experiment (4 months), or started on the day of XRT or 2,4,6 weeks post XRT and continued for 4 months (see scheme on FIG. 38). Plasma evaluation for lignan detection was done at 16 weeks post XRT.

[4] = test system: TC-1; assay: MTS cell proliferation assay with FS lignans: TC-1; assay type: cell-based; conditions: 10 μM for 16 hours
Method: (§1) FIG. 37: FS lignans EL and ED, and their precursor SDG, inhibit cell proliferation in tumor cell lines. Tumor cell lines (LKR, TC-1, and LLC) were incubated with 10 μM or 25 μM of SDG, EL, or ED for 16 hours and processed for MTS assay to measure cell proliferation. The % inhibition of cell growth compared to untreated (no lignan) cell lines was calculated. Bars represent means±SEM. n=3 readings per group.
(§2) Cell proliferation was assessed at this time (time 0), and 24 and 48 hours later.

[5] = test system: alveolar epithelial cells (A549); assay: H2O2-induced cell death of alveolar epithelial cells (LDH release); assay type: cell-based; conditions: 10, 50, 100, 200, 500 uM; 10 mM H2O2 for 1-6 hours
Method: In addition, using the same assay system to detect cell death, LDH release, an evaluation of the efficacy of the lignan enterodiole, ED, to protect alveolar epithelial cells (A549) from oxidant-induced cell death was made. In these experiments, cells were pre-incubated withincreasing concentrations of ED (10, 50, 100, 200, 500 uM) and challenged with hydrogen peroxide (10 mM H2O2) for 1-6 hours. […] (FIG. 20).

[6] = test system: HO-1; assay: HO-1 immunoblotting in pulmonary microvascular endothelial cells (PMVEC); assay type: cell-based, mouse; conditions: 10 μM; 1,2,4,6,8 and 10 hours
Method: For mechanistic studies, there is a need to establish whether purified lignans (in appropriate, “pharmacologically achievable” concentrations) have similar effects in cell culture as lignan complex diets have in animals. HO-1 levels were thus evaluated by immunoblotting in primary cultures of pulmonary microvascular endothelial cells (PMVEC) isolated from mouse lungs. PMVEC were incubated with the lignan enterodiole (ED) in micromolar concentrations (10 µM) similar to that seen in mouse plasma levels. Cells were incubated with ED for 1,2,4,6,8 and 10 hours.

[7] = test system: LLC; assay: MTS cell proliferation assay with FS lignans: LLC; assay type: cell-based; conditions: 10 μM for 16 hours
Method: as §1, §2

[8] = test system: LKR; assay: MTS cell proliferation assay with FS lignans: LKR; assay type: cell-based; conditions: 10 μM for 16 hours
Method: as §1, §2

[9] = test system: proteasomal activity; assay: Proteasomal inhibition in GFPu-1 cells (anti-GFP immunoblotting); assay type: cell-based, human; conditions: for amount of proteasomal inhibition as compared to Lactacystin and MG 132 / proteasomal inhibition compared to untreated cells (GFP expression): 16 hours; for proteasomal inhibition compared to untreated cells (GFP expression): EL 1 μM to 100 μM
Method: FIG. 36: Proteasomal inhibition with EL and ED as compared to known pharmacologic inhibitors Lactacystin and MG 132. GFPu-1 kidney epithelial cells were treated for 16 hours with EL and ED at differing concentrations. Proteasomal inhibition was detected by Western blotting using anti-GFP antibody with increased proteasomal inhibition expressed as accumulation of GFP. Representative Western blots are shown with β actin reference (Top panels). Densitometry was performed with β actin normalization, expressed as fold over untreated control±SEM, n=2-6 (Bottom panel). Dotted line represents control expression of GFP. *p<0.005 vs. untreated, **p<0.01 vs. untreated.
GFP^u-1 cells were used to investigate the impact of one of the flaxseed lignans, enterodiole (ED) on proteasomal activity. GFP^u-1 is an human kidney epithelial (HEK)-derived, stably transfected cell line expressing a short degron (CL1) tagged to green fluorescent protein (GFP) as described […].
Using an in vitro means of quantifying proteasomal inhibition with GFPu-1 cells, differing concentrations of the FS lignans EL and ED were compared with known pharmacologic proteasomal inhibitors MG 132 and Lactacystin, incubated for 16 hours prior to processing. Western blotting was performed on whole […] cell lysates using anti-GFP antibodies to quantify the amount of GFP expressed as a marker of the amount of proteasomal inhibition (FIG. 36, Top panels).

[10] = test system: PMVEC; assay: tBHQ-induced cell death of PMVEC (LDH release); assay type: cell-based, mouse; conditions: pretreatment 50 μM; 10 μM tBHQ
Method: Given the in vivo data hereinabove, showing protection of lungs from oxidative injury after flaxseed feeding, a confirmation of similar protection of cells in vitro was desired. Relatively high doses of the electrophile tert-butylhydroquinone (tBHQ) were used to oxidatively stress the cells. […] However, pretreatment of cells with 50 µM of the lignan Enterolactone (EL) was sufficient to protect cells up to 50% from tert-butylhydroquinone (tBHQ)-induced cell death (FIG. 19).

[11] = test system: streptozotosin-induced Diabetes mellitus; conditions: SDG-treated animals; cited from earlier work
[12] = test system: LKR cells; assay: MTS cell proliferation assay with proteasomal inhibitor; assay type: cell-based, mouse; conditions: one day post incubation
Method: FIG. 35: Cancer cell proliferation is inhibited by a known pharmacological proteasome inhibitor. LKR cells were incubated with MG 132, a known pharmacological proteasomal inhibitor and cell proliferation was measured using the MTS assay at one day post incubation. There was a dose dependent decrease in cell proliferation with increasing doses of MG 132.
LKR cells derived from an explant of a pulmonary tumor from an activated K-rasG12D mutant mouse were incubated with differing concentrations of MG 132, a known pharmacological proteasomal inhibitor to assess for cell proliferation using the MTS assay.

Compound	nuclear Nrf2 levels [1]	ROS generation [2]	concentration at 16 weeks post XRT [3] [ng/mL]	cancer cell proliferation rate (MTS) [4]	protection from oxidant-induced cell death (LDH release) [5]	HO-1 levels [6]	cancer cell proliferation rate (MTS) [7]	cancer cell proliferation rate (MTS) [8]	amount of proteasomal inhibition as compared to Lactacystin and MG 132 [9]	proteasomal inhibition compared to untreated cells (GFP expression) [9]	GFP levels (proteasomal inhibition) ([9]; Example 15)	protection from tBHQ-induced cell death [10]	diabetes [11]	serum and pancreatic lipid peroxidation [11]	cell proliferation inhibition (MTS) [12]
OC[C@H](Cc1cccc(O)c1)[C@H](CO)Cc1cccc(O)c1 [ED, enterodiol]	time-dependent increase	near complete abrogation	14 to 405	significant decrease	significantly protected	robust, time-dependent induction	significant decrease	significant decrease	comparable to only Lactacystin, not MG 132	significant amount of proteasomal inhibition	increased GFP levels in a dose-dependent fashion				
O=C1OC[C@H](Cc2cccc(O)c2)[C@H]1Cc1cccc(O)c1 [EL, enterolactone]			103 to 325	significant decrease			significant decrease	significant decrease	no significant difference	significant increase		up to 50%			
COc1cc(C[C@@H](CO[C@@H]2O[C@H](CO)[C@@H](O)[C@H](O)[C@H]2O)[C@H](CO[C@@H]2O[C@H](CO)[C@@H](O)[C@H](O)[C@H]2O)Cc2ccc(O)c(OC)c2)ccc1O [SDG, secoisolariciresinol diglucoside]				significant decrease			significant decrease	significant decrease					prevention of diabetes	decrease	
CC(C)C[C@@H](C=O)NC(=O)[C@H](CC(C)C)NC(=O)[C@H](CC(C)C)NC(=O)OCc1ccccc1 [MG 132] (Cbz-Leu-Leu-Leu-aldehyde)															clear dose dependent response
